Like-named read-outs stand apart in the source and are kept apart here. Blank lines part the entries; values can stand above or below the compound they belong to.
How the values were obtained:
[1] = percutaneous, dogs (Sarasola, 2002); cited from earlier work
[2] = percutaneous, cats (Sarasola, 2002); cited from earlier work
[3] = pigs; cited from earlier work
[4] = dogs; cited from earlier work
[5] = sheep; cited from earlier work
[6] = cows; cited from earlier work
[7] = in vivo; cited from earlier work
[8] = oral, 0.5 and 2.0 mg/kg/12 hours, 36 days; increase of four times the original dose; cited from earlier work
[9] = in vivo; conditions: dog
Method: In a period not longer than 2 hours, all of the samples were sent to the Laboratory, where they were centrifuged, and their plasma separated and frozen to −20° C. until the samples were quantified.

[10] = subcutaneous administration, 5 mg/kg, Xie et al. 2011; cited from earlier work
[11] = cited from earlier work
[12] = Plasma concentrations of Praziquantel

Structure (SMILES): CO[C@H]1C[C@H](O[C@@H]2/C(C)=C/C[C@@H]3C[C@@H](C[C@]4(CC[C@H](C)[C@@H](C5CCCCC5)O4)O3)OC(=O)[C@@H]3C=C(C)/C(=N/O)[C@H]4OC/C(=C\C=C\[C@@H]2C)[C@]43O)O[C@@H](C)[C@@H]1O [Selamectin]
bioavailability [1]: 4%
bioavailability [2]: 74%

Structure (SMILES): CO/N=C1\C[C@]2(C[C@@H]3C[C@@H](C/C=C(\C)C[C@@H](C)/C=C/C=C4\CO[C@@H]5[C@H](O)C(C)=C[C@@H](C(=O)O3)[C@]45O)O2)O[C@H](/C(C)=C/C(C)C)[C@H]1C [Moxidectin]
half-life of elimination [3]: 12 h
half-life of elimination [4]: 43.2 h
half-life of elimination [5]: 64.8 h
half-life of elimination [6]: 67.2 h
time of plasma spikes [7]: 3 to 5 h
average increase of the concentrations in plasma [8]: more than 8 times

Plasma concentrations of Praziquantel ([9]; 0 h): 0.0 ng/mL
time up to which plasma concentrations are detectable ([9]; 14.5 mg/kg): up to 48 hours
concentration at 0 h [9, 12]: 0 ng/mL
concentration at 6 h [9, 12]: 63.7 ng/mL
AUC/inf, Max ([9]; topical or ocular, 14.5 mg/kg): 1321
AUC/inf, Min ([9]; topical or ocular, 14.5 mg/kg): 626.6
CMAX, Min ([9]; topical or ocular, 14.5 mg/kg): 38.6 ng/mL
TMAX, Min ([9]; topical or ocular, 14.5 mg/kg): 4 h
Tmax ([9]; topical or ocular, 14.5 mg/kg): 4 h
AUC ([9]; topical or ocular, 14.5 mg/kg, AUC/inf, Median): 997 ng·h/mL
Cmax ([9]; topical or ocular, 14.5 mg/kg, Max): 77.6 ng/mL
Cmax ([9]; topical or ocular, 14.5 mg/kg, Median): 53.9 ng/mL
Tmax ([9]; topical or ocular, 14.5 mg/kg, TMAX): 6 h
Tmax ([9]; topical or ocular, 14.5 mg/kg, TMAX, Median): 5 h
Tmax ([9]; topical or ocular, 14.5 mg/kg, Tmax range): 4 to 6 h
Structure (SMILES): O=C(C1CCCCC1)N1CC(=O)N2CCc3ccccc3C2C1 (stereo not shown) [Praziquantel]
Cmax [10]: 47.82 ng/mL
Tmax [10]: 1.45 h
plasma values after 48 hours [10]: below 10 ng/ml
part of an oral dose excreted with no changes ([11]; oral dose): less than 1%
concentration in tissues and plasma ([11]; up to): 14-20%

— patent US10695331B2, “Veterinary composition comprising imidacloprid, moxidectin and praziquantel for cutaneous topical application (spot on), for the treatment and prevention of ecto and endoparasitoses affecting dogs” (LABYES USA, LLC, priority 2016, dated 2020)
